Laboratory results published in article PMC6349167, “Inhibiting the urokinase‐type plasminogen activator receptor system recovers STZ‐induced diabetic nephropathy” (Journal of Cellular and Molecular Medicine, 2018).
Like-named read-outs stand apart in the source and are kept apart here. Non-standard residues stand in square brackets, D forms with d. Residues, ends and D or L forms follow the SMILES beside them. αMeF = C[C@](N)(Cc1ccccc1)C(=O)O; Aib = CC(C)(N)C(=O)O

Legend:
[1] = rat, in vivo, sc, 20 mg/kg
Experimental: (§1) Four weeks after diabetes induction, three control or three STZ rats were used for the pharmacokinetics (PK) and the tissue distribution study. To this aim, rats received a single dose of UPARANT succinate dissolved in PBS (vehicle) at 20 mg/kg via subcutaneous injection according to a previous study.22 To investigate a possible therapeutic role of UPARANT, the drug was administered at 1 or 8 mg/kg daily for 5 days in 15 rats for each concentration used.
(§2) PK and UPARANT tissue distribution were as previously described.21 Briefly, for plasma PK, a volume of 0.2 mL blood was extracted at fixed time intervals (0.25, 0.5, 1, 2, 4, 6, 8, 12, 16 and 24 hours after dose) from the femoral vein. Blood was centrifuged (12 000 g for 20 minutes) and plasma was treated with 1% formic acid in methanol. Samples were stored at −80°C. The animals used for the PK study were killed at 24 hours. […] The concentration of UPARANT was evaluated via LC‐MS/MS.
(§3) A two phase model equation Ct = C0(e^-kelim^ t-e^-kabs^ t) with first order kinetics (absorption and elimination) was used to evaluate the kinetic parameters. Both C0 corresponding to the plasma concentration extrapolated at t=0 from the elimination phase and kelim and kabs, elimination and absorption kinetic parameters, were determined by best fit to the equation of the averaged time point concentrations. The terminal half-life t1/2 corresponding to 0.693/kelim and time tmax at the maximum plasma concentration Cmax were determined from the first derivative equal zero of the kinetic equation. The AUCinf, area under the concentration curve versus time from 0 to infinity was calculated by the integral of the kinetic equation.

in vivo [2] = settings: male, Sprague-Dawley, rat, sc, 20 mg/kg
Experimental: as §1, §2, §3

[3] = male, Sprague-Dawley, rat, in vivo, sc, 20 mg/kg, 24 h
Experimental: (§4) Four weeks after diabetes induction, three control or three STZ rats were used for the pharmacokinetics (PK) and the tissue distribution study. To this aim, rats received a single dose of UPARANT succinate dissolved in PBS (vehicle) at 20 mg/kg via subcutaneous injection according to a previous study.22 To investigate a possible therapeutic role of UPARANT, the drug was administered at 1 or 8 mg/kg daily for 5 days in 15 rats for each concentration used. […] Rats were killed with 65 mg/kg pentobarbital. Blood was collected in EDTA tubes to then isolate plasma by centrifugation and kidneys were removed.
(§5) PK and UPARANT tissue distribution were as previously described.21 Briefly, for plasma PK, a volume of 0.2 mL blood was extracted at fixed time intervals (0.25, 0.5, 1, 2, 4, 6, 8, 12, 16 and 24 hours after dose) from the femoral vein. Blood was centrifuged (12 000 g for 20 minutes) and plasma was treated with 1% formic acid in methanol. Samples were stored at −80°C. The animals used for the PK study were killed at 24 hours. Kidneys and livers were dissected and processed with 1% formic acid in methanol. The concentration of UPARANT was evaluated via LC‐MS/MS.

in vivo [4] = settings: male, Sprague-Dawley, rat, sc, 20 mg/kg; remark: listed apart in the source
Experimental: as §4, §5

AUCinf ([1]; male, Sprague-Dawley): 16100 ng·h/mL | Cmax ([1]; male, Sprague-Dawley): 2300 ng/mL | tmax ([1]; male, Sprague-Dawley): 2.2 h | kabs [1]: 0.6 ± 0.2 h⁻¹ | t1/2 [1]: 2.2 h | half-life (in vivo [2]): 2.2 h | AUC(0-inf) (in vivo [2]; AUCinf): 15900 ng·h/mL | Cmax (in vivo [2]; Cmax): 2600 ng/mL | tmax (in vivo [2]; tmax): 2.3 h | concentration of UPARANT in the kidney [3]: 28.2 ± 4.3 µg/g | concentration of UPARANT in the liver [3]: 20.4 ± 7.5 µg/g | tissue level at time at 24 h (in vivo [4]; concentration of UPARANT in the kidney): 45900 ± 3600 ng/g | tissue level at time at 24 h (in vivo [4]; concentration of UPARANT in the liver): 21100 ± 2400 ng/g
Structure (SMILES): CC(=O)N[C@@H](CCCNC(=N)N)C(=O)NC(C)(C)C(=O)N[C@@H](CCCNC(=N)N)C(=O)N[C@@](C)(Cc1ccccc1)C(N)=O [UPARANT, Ac‐L‐Arg‐Aib‐L‐Arg‐L‐Cα(Me)PheNH2] (Ac-R[Aib]R[αMeF]-NH2)
